What was measured:
[1] = Animal mortality and survival after intra-tumoural injection in tumour-bearing nude mice; assay type: in vivo; conditions: for animal mortality rate: intratumoural
Protocol: The following protocol was adopted: • 1. Culture of human cells and implantation of the tumour cells as solid tumours in nude mice: The carcinoma cell-line was cultured in RPMI and Ham's F-12 media respectively with 10% fetal calf serum in a CO2 incubator and subcultured every two to three days until growing to a number enough for implantation in animals. The cells were then implanted as solid tumors in nude mice]. The cells were collected in HBSS (Hanks balanced salt solution). One hundred microliters of cell suspension in HBSS (5×10^6 cells) was injected subcutaneously into right gluteal region of nude mice (female, 6 to 9 week old nude mice with average body weight of 25 g, housed in pathogen-free conditions) using a 25-gauge needle. • 2. Animals groups: Animals were randomly grouped into control 1 (injected with peanut oil), control 2 (injected with porous silicon without drug), free chlorambucil (drug injected without porous silicon directly into tumour or injected via intraperitoneal route) and chlorambucil impregnated porous silicon groups. Each group included 16 to 20 animals. • 3. Injection of chlorambucil impregnated porous silicon in transplanted tumours: On day 14 after implantation of tumours (diameter of the tumour about lcm), the chlorambucil impregnated formulation was applied to the centre of the tumours. • 4. Tumour volumetrics: The sizes of implanted tumours in nude mice was estimated every 3 days. The largest and smallest diameters were measured by a vernier caliper and tumour volumes estimated according the formula: V=½ ab^2, where a and b are largest and smallest tumour diameters respectively, and V is the tumour volume in cm^3.
The effects of intra-tumoural administered chlorambucil loaded porous silicon on the growth of the tumour was studied and compared with control and systemic therapy groups. The body weight of the animals was estimated by subtracting the tumour volume (cm3) from the total body weight (g) every 3 days. The survival time of each experimental animal was recorded. […]

HeLa cells = test: Live/Dead cell assay; conditions: 24 hours, chlorambucil 90 μg/ml
Protocol: Cells with formulated drug were collected at 24 hours after incubation, placed into sterile plastic tubes and centrifuged. The supernatants were aspirated out and the cell pellets were washed gently with copious amount of PBS and centrifuged to remove any excipient. The cell pellet was dislodged gently and incubated with 300 μl of Live/dead cell assay reagent and incubated for 45 minutes on a rocker with gentle shaking (20 shakes per minute). At the end of incubation the cells were spun down, washed twice with PBS, reconstituted with 1 ml of PBS and transferred into a plate to capture the images of Live/Dead cells using fluorescent microscope.
The Live/Dead cell assay was performed on HeLa cell cultures grown on collagen coated plated and treated with various forms of porous silicon (AN^+/SE, loaded/unloaded, pre-formulated/formulated).
The procedure was performed on adherent cells after the floating cells were washed off. […] Therefore, percentage of live and dead cells was calculated from the adherent cells stuck to the bottom of the wells. Each sample was run in triplicate wells and one microscopic field image from each well was captured and the live and dead cells were counted to get an average % of cytotoxicity.

O=C(O)CCCc1ccc(N(CCCl)CCCl)cc1 [chlorambucil, 4-[bis(2-chloroethyl)amino}benzenebutanoic acid]
animal mortality rate ([1]; 720 ug): 50% | animal mortality rate ([1]; 1500 ug (2×LD50)): 90% | LD50 ([1]; nude mice, free drug): 720 µg | dead cell percentage (cytotoxicity) (HeLa cells): ≥ 95%

— US20070042046A1, “Methods for the treatment of cancer” (priority 2003, published 2007)
